For orientation: Kd means the concentration at which binding is half-saturated.

The target of assay [1] is T1, human Glypican3 (Homo sapiens, UniProt P51654).
T1 construct: purchased R&D systems 2119-GP
Kind of assay: SPR binding to Glypican-3, Method B-1 (Glypican3 immobilized on CM3 chip, Biacore T200). The settings on record: SPR method B-1. How it is done: A CM3 sensor chip (Cytiva) was inserted into a Biacore T200 (Cytiva), primed three times with a running buffer: HBS-P+, pH 7.4 (Cytiva), and equilibrated at a flow rate of 30 μL/min. Ligand immobilization was performed at a flow rate of 10 μL/min. 50 μL each of 60 mM EDC solution (Cytiva) and 650 mM NHS solution (Cytiva) were mixed, and then reacted at a flow rate of 10 μL/min for 420 seconds, 150 μL of 0.2 μM human Glypican3 (R&D systems, catalog number: 2119-GP) solution which was prepared by diluting with 10 mM acetic acid solution (pH 5.0), was reacted at a flow rate of 10 μL/min for 420 seconds, and Glypican3 was immobilized on the CM3 sensor chip. After immobilization, 1.0 M ethanolamine aqueous solution (Cytiva) was allowed to react for 420 seconds at a flow rate of 10 μL/min for capping. A peptide lysate prepared to 10 mM in DMSO solution was diluted with running buffer to a final concentration of 10 μM peptide lysate. After that, 5 serial dilution series (100 nM, 50 nM, 25 nM, 10 nM, 5 nM) of peptide solutions were prepared. Using the above samples, peptide kinetics for Glypican3 was obtained by SPR measurement. Kinetics evaluation of Glypican3 was performed by SPR measurements at a flow rate of 10 μL/min, setting the association time to 120 seconds and the disassociation time to 600 seconds.
(§1) The obtained data by Method B-1, Method B-2, Method B-3 and Method B-4 were analyzed by follow. Single Cycle Kinetics was used as the kinetics evaluation model, and curve fitting was performed using Biacore T200 Evaluation Software Version 3.0 (Cytiva). The obtained sensorgram was subjected to curve fitting by the method of least squares and obtained KD values of the macrocyclic peptides in this disclosure for Glypican 3 protein are shown in Table 18.
In general terms: In SPR one partner is held on a chip, and binding of the other changes the refractive index at the surface.

Assay [2] concerns the target Human Glypican3-Fc (Homo sapiens, UniProt P51654). Description: SPR binding to Glypican-3, Method B-2 (Glypican3-Fc captured by anti-human IgG (Fc) antibody on CM3 chip). To be noted: SPR method B-2. How it is done:
A CM3 sensor chip (Cytiva) was inserted into a Biacore T200 (Cytiva), primed three times with a running buffer: HBS-P-+, pH 7.4 (Cytiva), and equilibrated at a flow rate of 30 μL/min. Using the Anti-Fc Capture Kit (Cytiva), 50 LL each of 60 mM EDC solution (Cytiva) and 650 mM NHS solution (Cytiva) were mixed, and then reacted at a flow rate of 10 μL/min for 420 seconds, 150 μL of […] Anti-human IgG (Fc) Antibody solution was prepared by diluting with 10 mM acetic acid solution (pH 5.0), reacted at a flow rate of 10 μL/min for 420 seconds, and immobilized on a CM3 sensor chip. After immobilization, 1.0 M ethanolamine aqueous solution (Cytiva) was allowed to react for 420 seconds at a flow rate of 10 μL/min for capping. Human Glypican3-Fc (ACRO Biosystems, GP3-H5258) was allowed to react for 60 seconds at a flow rate of 10 μL/min. After capturing human Glypican3-Fc, a peptide solution prepared to 10 mM in DMSO solution was diluted with a running buffer to a final concentration of 10 μM. After that, 5 serial dilution series (100 nM, 50 nM, 25 nM, 10 nM, 5 nM) of peptide solutions were prepared. Using the above samples, peptide kinetics for Glypican3 was obtained by SPR measurement. Kinetics evaluation of Glypican3 was performed by SPR measurements at a flow rate of 10 μL/min. setting the association time to 120 seconds and the disassociation time to 600 seconds.
as §1

Starred links: 1 amine or outer side, 2 acyl side, 3 side chain; linkers in the order of their positions; H or OH if unused. Positions of bridges follow the written chain, without caps; N, C: chain ends. Non-standard residues stand in square brackets, D forms with d. Residues, ends and D or L forms follow the SMILES beside them. Groups on a side chain read outwards from the residue. *: point of attachment. Phe(4-(1-Me-pyrazol-4-yl)) = Cn1cc(-c2ccc(C[C@H](N)C(=O)O)cc2)cn1; NMeAla(isoquinolin-7-yl) = CN[C@@H](Cc1ccc2ccncc2c1)C(=O)O; DOTA = O=C(O)CN1CCN(CC(=O)O)CCN(CC(=O)*)CCN(CC(=O)O)CC1; CH2CON(CH2CH2)2NCH2COOH = O=C(O)CN1CCN(C(=O)C*)CC1; 3Pal(6-Ph) = N[C@@H](Cc1ccc(-c2ccccc2)nc1)C(=O)O; Phe(4-COOH) = N[C@@H](Cc1ccc(C(=O)O)cc1)C(=O)O; Piperazinyl(4-CH2COOH) = O=C(O)CN1CCN(*)CC1; NMe2Nal = CN[C@@H](Cc1ccc2ccccc2c1)C(=O)O; AEF = NCCOc1ccc(C[C@H](N)C(=O)O)cc1; NMeI = CC[C@H](C)[C@H](NC)C(=O)O; NMeQ = CN[C@@H](CCC(N)=O)C(=O)O; NMehCys = CN[C@@H](CCS)C(=O)O; NMehSer = CN[C@@H](CCO)C(=O)O; NMeK = CN[C@@H](CCCCN)C(=O)O; NMeC = CN[C@@H](CS)C(=O)O; Carboxymethyl = O=C(O)C*; NMeA = CN[C@@H](C)C(=O)O; CO = O=C([*:1])[*:2]

For the compound `CC[C@H](C)[C@@H]1NC(=O)[C@H](Cc2ccc(C(=O)O)cc2)NC(=O)[C@H](CCC(N)=O)N(C)C(=O)[C@H](CC(=O)O)NC(=O)[C@H]([C@@H](C)CC)N(C)C(=O)[C@H](CCCCNC(C)=O)N(C)C(=O)CSC[C@@H](C(N)=O)N(C)C(=O)[C@H](Cc2ccc(-c3ccccc3)nc2)NC(=O)CNC(=O)[C@H](Cc2ccc3ccccc3c2)N(C)C(=O)[C@H](Cc2ccc(C(=O)O)cc2)NC(=O)[C@H]([C@@H](C)CC)NC1=O` [Conjugate 2-1] ({CH2CO}-[NMeK](Ac)[NMeI]D[NMeQ][Phe(4-COOH)]II[Phe(4-COOH)][NMe2Nal]G[3Pal(6-Ph)][NMeC]-NH2; thioether N-12), the equilibrium dissociation constant (Kd) in assay [1] turned out to be 0.5 nM.
The same measure, in the same setting: as for `CC[C@H](C)[C@@H]1NC(=O)[C@H]([C@@H](C)OC)NC(=O)[C@H](Cc2ccc(C(=O)O)cc2)NC(=O)[C@H](CCC(N)=O)N(C)C(=O)[C@H](CC(=O)O)NC(=O)[C@H](CCC(N)=O)N(C)C(=O)[C@H](CCC(N)=O)N(C)C(=O)SCC[C@@H](C(N)=O)N(C)C(=O)[C@H](Cc2ccc(-c3cnn(C)c3)cc2)NC(=O)CNC(=O)[C@H](Cc2ccc3ccccc3c2)N(C)C(=O)[C@H](Cc2ccc(C(=O)O)cc2)NC1=O` [Conjugate 2-15] ([NMeQ][NMeQ]D[NMeQ][Phe(4-COOH)]T(Me)I[Phe(4-COOH)][NMe2Nal]G[Phe(4-(1-Me-pyrazol-4-yl))][NMehCys]-NH2; linker N-12 via CO), the figure is 1.8 nM; as for `CC[C@H](C)[C@@H]1NC(=O)[C@H](Cc2ccc(C(=O)O)cc2)NC(=O)[C@H](CCC(N)=O)N(C)C(=O)[C@H](CCC(N)=O)NC(=O)[C@H]([C@@H](C)CC)N(C)C(=O)[C@H](CCCCNC(C)=O)N(C)C(=O)CSC[C@@H](C(N)=O)N(C)C(=O)[C@H](Cc2ccc(-c3cnn(C)c3)cc2)NC(=O)CNC(=O)[C@H](Cc2ccc3ccccc3c2)N(C)C(=O)[C@H](Cc2ccc(C(=O)O)cc2)NC(=O)[C@H]([C@@H](C)CC)NC1=O` [Conjugate 2-3] ({CH2CO}-[NMeK](Ac)[NMeI]Q[NMeQ][Phe(4-COOH)]II[Phe(4-COOH)][NMe2Nal]G[Phe(4-(1-Me-pyrazol-4-yl))][NMeC]-NH2; thioether N-12), 1.2 nM; as for `CC[C@H](C)[C@@H]1NC(=O)[C@H](Cc2ccc(C(=O)O)cc2)NC(=O)[C@H](CCC(N)=O)N(C)C(=O)[C@H](CCCCNC(C)=O)NC(=O)[C@H](CCC(N)=O)N(C)C(=O)[C@H](CCC(N)=O)N(C)C(=O)CSC[C@@H](C(N)=O)N(C)C(=O)[C@H](Cc2ccc(-c3cnn(C)c3)cc2)NC(=O)CNC(=O)[C@H](Cc2ccc3ccccc3c2)N(C)C(=O)[C@H](Cc2ccc(C(=O)O)cc2)NC(=O)[C@H]([C@@H](C)CC)NC1=O` [Conjugate 2-11] ({CH2CO}-[NMeQ][NMeQ]K(Ac)[NMeQ][Phe(4-COOH)]II[Phe(4-COOH)][NMe2Nal]G[Phe(4-(1-Me-pyrazol-4-yl))][NMeC]-NH2; thioether N-12), 2.5 nM.
As for `CC[C@H](C)[C@@H]1NC(=O)[C@H]([C@@H](C)OC)NC(=O)[C@H](Cc2ccc(C(=O)O)cc2)NC(=O)[C@H](CCC(N)=O)N(C)C(=O)[C@H](CC(=O)O)NC(=O)[C@H](CCOC)N(C)C(=O)[C@H](C)N(C)C(=O)CSC[C@@H](C(N)=O)N(C)C(=O)[C@H](Cc2ccc(-c3ccccc3)nc2)NC(=O)CNC(=O)[C@H](Cc2ccc3ccccc3c2)N(C)C(=O)[C@H](Cc2ccc(OCCNC(=O)CN3CCN(CC(=O)O)CCN(CC(=O)O)CCN(CC(=O)O)CC3)cc2)NC1=O` [Lu-C-44] ({CH2CO}-[NMeA][NMehSer](Me)D[NMeQ][Phe(4-COOH)]T(Me)I[AEF](DOTA)[NMe2Nal]G[3Pal(6-Ph)][NMeC]-NH2; thioether N-12), the Kd in assay [2] was found to be 1 nM.
Still for that read-out and setting: as for `CC[C@H](C)[C@@H]1NC(=O)[C@H]([C@@H](C)OC)NC(=O)[C@H](Cc2ccc(C(=O)O)cc2)NC(=O)[C@H](CCC(N)=O)N(C)C(=O)[C@H](CC(=O)O)NC(=O)[C@H]([C@@H](C)CC)N(C)C(=O)[C@H](CCCCNC(=O)CN2CCN(CC(=O)O)CCN(CC(=O)O)CCN(CC(=O)O)CC2)N(C)C(=O)CSC[C@@H](C(N)=O)N(C)C(=O)[C@H](Cc2ccc(-c3ccccc3)nc2)NC(=O)CNC(=O)[C@H](Cc2ccc3ccncc3c2)N(C)C(=O)[C@H](Cc2ccc(OCC(=O)O)cc2)NC1=O` [Lu-C-30] ({CH2CO}-[NMeK](DOTA)[NMeI]D[NMeQ][Phe(4-COOH)]T(Me)IY(Carboxymethyl)[NMeAla(isoquinolin-7-yl)]G[3Pal(6-Ph)][NMeC]-NH2; thioether N-12), the figure is 0.7 nM.
Still for that read-out and setting: with `CC[C@H](C)[C@@H]1NC(=O)[C@H]([C@@H](C)OC)NC(=O)[C@H](Cc2ccc(C(=O)O)cc2)NC(=O)[C@H](CCC(N)=O)N(C)C(=O)[C@H](CC(=O)O)NC(=O)[C@H](CCOC)N(C)C(=O)[C@H](CCC(N)=O)N(C)C(=O)CSC[C@@H](C(N)=O)N(C)C(=O)[C@H](Cc2ccc(-c3ccccc3)nc2)NC(=O)CNC(=O)[C@H](Cc2ccc3ccccc3c2)N(C)C(=O)[C@H](Cc2ccc(OCCNC(=O)N3CCN(CC(=O)O)CC3)cc2)NC1=O` [Conjugate 2-19] ({CH2CO}-[NMeQ][NMehSer](Me)D[NMeQ][Phe(4-COOH)]T(Me)I[AEF]([CO-Piperazinyl(4-CH2COOH)])[NMe2Nal]G[3Pal(6-Ph)][NMeC]-NH2; thioether N-12) the figure was 0.5 nM; with `CC[C@H](C)[C@@H]1NC(=O)[C@H]([C@@H](C)OC)NC(=O)[C@H](Cc2ccc(C(=O)O)cc2)NC(=O)[C@H](CCC(N)=O)N(C)C(=O)[C@H](CC(=O)O)NC(=O)[C@H](CCOC)N(C)C(=O)[C@H](CCC(N)=O)N(C)C(=O)CSC[C@@H](C(N)=O)N(C)C(=O)[C@H](Cc2ccc(-c3ccccc3)nc2)NC(=O)CNC(=O)[C@H](Cc2ccc3ccccc3c2)N(C)C(=O)[C@H](Cc2ccc(OCC(=O)N3CCN(CC(=O)O)CC3)cc2)NC1=O` [Conjugate 2-22] ({CH2CO}-[NMeQ][NMehSer](Me)D[NMeQ][Phe(4-COOH)]T(Me)IY(CH2CON(CH2CH2)2NCH2COOH)[NMe2Nal]G[3Pal(6-Ph)][NMeC]-NH2; thioether N-12), 0.8 nM; with `CC[C@H](C)[C@@H]1NC(=O)[C@H](Cc2ccc(C(=O)O)cc2)NC(=O)[C@H](CCC(N)=O)N(C)C(=O)[C@H](CC(=O)O)NC(=O)[C@H]([C@@H](C)CC)N(C)C(=O)[C@H](CCCCNC(=O)[C@H](Cc2c[nH]cn2)NC(=O)CN2CCN(CC(=O)O)CCN(CC(=O)O)CCN(CC(=O)O)CC2)N(C)C(=O)CSC[C@@H](C(N)=O)N(C)C(=O)[C@H](Cc2ccc(-c3ccccc3)nc2)NC(=O)CNC(=O)[C@H](Cc2ccc3ccncc3c2)N(C)C(=O)[C@H](Cc2ccc(OCC(=O)O)cc2)NC(=O)[C@H]([C@@H](C)CC)NC1=O` [Lu-C-34] ({CH2CO}-[NMeK]([His-DOTA])[NMeI]D[NMeQ][Phe(4-COOH)]IIY(Carboxymethyl)[NMeAla(isoquinolin-7-yl)]G[3Pal(6-Ph)][NMeC]-NH2; thioether N-12), 0.8 nM.
Consider `CC[C@H](C)[C@@H]1NC(=O)[C@H](Cc2ccc(C(=O)O)cc2)NC(=O)[C@H](CCC(N)=O)N(C)C(=O)[C@H](CC(=O)O)NC(=O)[C@H](CCC(N)=O)N(C)C(=O)[C@H](C)N(C)C(=O)CSC[C@@H](C(N)=O)N(C)C(=O)[C@H](Cc2ccc(-c3ccccc3)nc2)NC(=O)CNC(=O)[C@H](Cc2ccc3ccccc3c2)N(C)C(=O)[C@H](Cc2ccc(C(=O)O)cc2)NC(=O)[C@H]([C@@H](C)CC)NC1=O` [Conjugate 2-23] ({CH2CO}-[NMeA][NMeQ]D[NMeQ][Phe(4-COOH)]II[Phe(4-COOH)][NMe2Nal]G[3Pal(6-Ph)][NMeC]-NH2; thioether N-12), for which the Kd in assay [2] turned out to be 1.5 nM.

These data come from patent US20260241049A1, “Radiopharmaceutical Compositions Targeting Glypican-3 and Uses Thereof” (RayzeBio, Inc., priority 2023, published 2026).
